The values that follow come from patent US8486965B2, “Pyrrolo[2,3-b]pyridine derivative and use thereof for treatment of cancer” (Takeda Pharmaceutical Company Limited, priority 2009, dated 2013).

The experiment concerns Hedgehog signal transduction system (Smo). Put plainly: Gli reporter luciferase assay in NIH-3T3/Gli reporter cells stimulated with mouse Shh-N end fragment. To be noted: NIH3T3; 1 μM compound; NIH-3T3/Gli reporter cells with mouse Shh-N end fragment culture supernatant, 48 hr; luciferase activity, control without compound as 100; read-out: inhibition rate (%) at 1 μM. Type of experiment: cell-based. An excerpt:
Inhibition of the Hedgehog signal transduction system can be measured, for example, by quantifying a decrease in the expression level of a reporter gene connected to the downstream of the Gli binding site based on the fluorescence intensity according to the following Experimental Example 1. Alternatively, it can be measured by quantifying the expression of Gli-1 mRNA in a cell extract by quantitative PCR method and the like. A compound that inhibits Hedgehog signal targets Smo, which can be confirmed, for example, by binding fluorescence-labeled Cyclopamine and a test compound to cells expressing Smo, measuring the fluorescence level of the cell, and comparing the value with that without addition of a test compound to find a decrease.
Gli reporter plasmid was constructed by inserting 8×Gli-binding site and chicken δ-crystalline promoter into the upstream of luc+ of pGL3 (Promega).
prepared in reference to the base sequence described in GenBank accession No.; X02187, and chicken genome DNA (Clontech) as a template. PCR reaction was performed using Pfu Turbo (Stratagene) and following the attached protocol. The obtained 108 bp fragment was digested with restriction enzymes BglII and HindIII, and inserted into BglII-HindIII site of pGL3 to give plasmid pGL3/δ-cry promoter.
As 8× Gli-binding site, a sequence containing eight 9-bp Gli bound consensus sequences (GACCACCCA) described in Yoon et al., J. Biol. Chem., vol. 273, pages 3496-3501 (1998) was prepared from synthetic DNA. That is, two synthetic DNAs,
were heat treated at 95° C. for 2 minutes, and incubated at 37° C. for 1 hr for annealing to give a double stranded DNA of the above-mentioned two synthetic DNAs. The obtained double stranded DNA was digested with restriction enzymes BglII and KpnI, and the obtained DNA fragment was inserted into BglII-KpnI site of pGL3/δ-cry promoter to construct plasmid pGL3/δ-cry promoter, 8× Gli binding site, i.e., Gli reporter plasmid. 2. Construction of Plasmid for Expression of Mouse Shh-N End Fragment
As a material for construction of plasmid for Shh-N end fragment expression, mouse Shh cDNA was cloned at first.
The mouse Shh cDNA was cloned by Nested PCR method using mouse 11-day fetus cDNA (Clontech) as a template. The primer sequence was prepared in reference to the base sequence described in GenBank accession No.; NM_009170.
Using the mouse Shh cDNA sequence obtained as mentioned above as a template, a partial cDNA sequence wherein stop codon (TGA) was added to 3′-terminal of cDNA sequence encoding 1st to 198th amino acid sequence of mouse Shh was obtained by PCR method. As the primer set,
In the manner mentioned above, a plasmid for mouse Shh-N end fragment expression, pcDNA3.1/mShh-N, was constructed.
HEK293 cells were grown in D-MEM medium (Invitrogen) containing 10% fetal bovine serum in a 10 cm dish and pcDNA3.1/mShh-N was introduced into the cells using FuGENE6 (Roche Applied Science). Thereafter, the HEK293 cells were cultured in a carbon dioxide gas incubator at 37° C. for 24 hours, and the medium was exchanged with D-MEM medium (Invitrogen) containing 2% fetal bovine serum. After culturing for 48 hr, culture supernatant containing recombinant type mouse Shh-N end fragment was obtained by filtration using a filter ([…]).
Using D-MEM (Invitrogen) containing 10% fetal bovine serum, expression plasmid pcDNA3:1 and Gli reporter plasmid (pGL3/δ-cry promoter, 8× Gli binding site) produced by the method of Experimental Example 1 were introduced into NIH-3T3 cells grown in a 10 cm dish by the use of FuGENE6 (Roche Applied Science).
After culture for 24 hr, the cells were recovered, suspended in D-MEM medium containing 10% fetal bovine serum and supplemented with Geneticin (Life Technologies Oriental, Inc.) to a final concentration of 500 μg/ml, diluted to 10^4 cells/ml, plated on a 96 well plate, and cultured in a carbon dioxide gas incubator at 37° C. to give Geneticin resistant transformed cell line. […]
As a reminder, the inhibition is the drop in the measured response relative to a control, in per cent. In the case of `CCc1nc2c(cc1NC(=O)c1ccsc1)c(OCC(F)(F)F)c(C(=O)NC1CCN(C(=O)CO)CC1)n2C` [Example 50, 6-ethyl-N-[1-(hydroxyacetyl)piperidin-4-yl]-1-methyl-5-[(thiophen-3-ylcarbonyl)amino]-3-(2,2,2-trifluoroethoxy)-1H-pyrrolo[2,3-b]pyridine-2-carboxamide], the inhibition at 1 µM stood at 94%.

Regarding `CCc1nc2c(cc1CC(=O)c1ccccc1)c(OCC(F)(F)F)c(C(=O)NC1CCN(C(=O)CO)CC1)n2C` [Example 9, 6-ethyl-N-[1-(hydroxyacetyl)piperidin-4-yl]-1-methyl-5-(2-oxo-2-phenylethyl)-3-(2,2,2-trifluoroethoxy)-1H-pyrrolo[2,3-b]pyridine-2-carboxamide], the inhibition at 1 µM is 98%.

Turning to `Cc1nc2c(nc1-c1ccccc1)c(OC(C)C)c(C(=O)NC1CCN(C(=O)CO)CC1)n2C` [Example 143, N-[1-(hydroxyacetyl)piperidin-4-yl]-3,5-dimethyl-7-(1-methylethoxy)-2-phenyl-5H-pyrrolo[2,3-b]pyrazine-6-carboxamide], the inhibition at 1 µM worked out at 96%.

Turning to `CCc1nc2c(cc1NC(=O)c1cncs1)c(OCC(F)(F)F)c(C(=O)NC1CCN(C(=O)CO)CC1)n2C` [Example 53, 6-ethyl-N-[1-(hydroxyacetyl)piperidin-4-yl]-1-methyl-5-[(1,3-thiazol-5-ylcarbonyl)amino]-3-(2,2,2-trifluoroethoxy)-1H-pyrrolo[2,3-b]pyridine-2-carboxamide], the inhibition at 1 µM was determined as 95%.

As to `CCc1cc2sc(C(=O)NC3CCN(C(=O)CO)CC3)c(OC(C)C)c2cc1NC(=O)c1ccc(F)cc1` [Example 154, 6-ethyl-5-{[(4-fluorophenyl)carbonyl]amino}-N-[1-(hydroxyacetyl)piperidin-4-yl]-3-(1-methylethoxy)-1-benzothiophene-2-carboxamide], the inhibition at 1 µM came to 97%.

In the case of `CCc1cc2sc(C(=O)NC3CCN(C(=O)CO)CC3)c(OCC(F)(F)F)c2cc1NC(=O)c1ccsc1` [Example 150, 6-ethyl-N-[1-(hydroxyacetyl)piperidin-4-yl]-5-[(thiophen-3-ylcarbonyl)amino]-3-(2,2,2-trifluoroethoxy)-1-benzothiophene-2-carboxamide], the inhibition at 1 µM came to 89%.

Turning to `CCc1cc2c(nc1NC(=O)c1ccc(F)cc1)c(OC(C)C)c(C(=O)NC1CCN(C(=O)CO)CC1)n2C` [Example 167, 6-ethyl-5-{[(4-fluorophenyl)carbonyl]amino}-N-[1-(hydroxyacetyl)piperidin-4-yl]-1-methyl-3-(1-methylethoxy)-1H-pyrrolo[3,2-b]pyridine-2-carboxamide], the inhibition at 1 µM is 99%.

As to `CCc1nc2c(cc1NC(=O)c1ccc(F)cc1)c(OCC(F)(F)F)c(C(=O)NC1CCN(C(=O)CO)CC1)n2C` [Example 24, 6-ethyl-5-{[(4-fluorophenyl)carbonyl]amino}-N-[1-(hydroxyacetyl)piperidin-4-yl]-1-methyl-3-(2,2,2-trifluoroethoxy)-1H-pyrrolo[2,3-b]pyridine-2-carboxamide], the inhibition at 1 µM was determined as 90%.

With `Cc1cc2sc(C(=O)NC3CCN(C(=O)CO)CC3)c(OCC(F)(F)F)c2cc1NC(=O)c1ccccc1` [Example 68, N-[1-(hydroxyacetyl)piperidin-4-yl]-6-methyl-5-[(phenylcarbonyl)amino]-3-(2,2,2-trifluoroethoxy)-1-benzothiophene-2-carboxamide], the inhibition at 1 µM came to 96%.

In the case of `CCc1nc2c(cc1NC(=O)c1ccccc1)c(OCC(F)(F)F)c(C(=O)N[C@H]1CC[C@H](O)CC1)n2C` [Example 37, 6-ethyl-N-(trans-4-hydroxycyclohexyl)-1-methyl-5-[(phenylcarbonyl)amino]-3-(2,2,2-trifluoroethoxy)-1H-pyrrolo[2,3-b]pyridine-2-carboxamide], the inhibition at 1 µM is 87%.

Take `CCc1nc2c(cc1NC(=O)c1ccsc1)c(OC(C)C)c(C(=O)NC1CCN(C(=O)CO)CC1)n2C` [Example 61, 6-ethyl-N-[1-(hydroxyacetyl)piperidin-4-yl]-1-methyl-3-(1-methylethoxy)-5-[(thiophen-3-ylcarbonyl)amino]-1H-pyrrolo[2,3-b]pyridine-2-carboxamide]: the inhibition at 1 µM worked out at 98%.

For the compound `CCc1cc2sc(C(=O)NC3CCN(C(=O)CO)CC3)c(OC(C)C)c2cc1NC(=O)c1cccs1` [Example 153, 6-ethyl-N-[1-(hydroxyacetyl)piperidin-4-yl]-3-(1-methylethoxy)-5-[(thiophen-2-ylcarbonyl)amino]-1-benzothiophene-2-carboxamide], the inhibition at 1 µM was found to be 97%.

As for `Cc1nc2c(nc1NC(=O)c1ccccc1)c(OC(C)C)c(C(=O)NC1CCN(C(=O)CO)CC1)n2C` [Example 164, N-[1-(hydroxyacetyl)piperidin-4-yl]-3,5-dimethyl-7-(1-methylethoxy)-2-[(phenylcarbonyl)amino]-5H-pyrrolo[2,3-b]pyrazine-6-carboxamide], the inhibition at 1 µM was 99%.

As to `CCc1nc2c(cc1NC(=O)c1ccc(OC)cc1)c(OCC(F)(F)F)c(C(=O)NC1CCN(C(=O)CO)CC1)n2C` [Example 34, 6-ethyl-N-[1-(hydroxyacetyl)piperidin-4-yl]-5-{[(4-methoxyphenyl)carbonyl]amino}-1-methyl-3-(2,2,2-trifluoroethoxy)-1H-pyrrolo[2,3-b]pyridine-2-carboxamide], the inhibition at 1 µM is 93%.

Regarding `CCc1cc2c(cc1NC(=O)c1ccccc1)c(OCC(F)(F)F)c(C(=O)NC1CCN(C(=O)CO)CC1)n2C` [Example 146, 6-ethyl-N-[1-(hydroxyacetyl)piperidin-4-yl]-1-methyl-5-[(phenylcarbonyl)amino]-3-(2,2,2-trifluoroethoxy)-1H-indole-2-carboxamide], the inhibition at 1 µM came out at 90%.

`CCc1cc2sc(C(=O)NC3CCN(C(=O)CO)CC3)c(OC(C)C)c2cc1NC(=O)c1ccsc1` [Example 152, 6-ethyl-N-[1-(hydroxyacetyl)piperidin-4-yl]-3-(1-methylethoxy)-5-[(thiophen-3-ylcarbonyl)amino]-1-benzothiophene-2-carboxamide]: the inhibition at 1 µM is 97%.

On to `CCc1nc2c(cc1NC(=O)c1ccccc1)c(OC(C)C)c(C(=O)N[C@H]1CC[C@@H](O)CC1)n2C` [Example 173, 6-ethyl-N-(cis-4-hydroxycyclohexyl)-1-methyl-3-(1-methylethoxy)-5-[(phenylcarbonyl)amino]-1H-pyrrolo[2,3-b]pyridine-2-carboxamide], for which the inhibition at 1 µM was 98%.

On to `CCc1nc2c(cc1NC(=O)c1ccc(Cl)cc1)c(OCC(F)(F)F)c(C(=O)NC1CCN(C(=O)CO)CC1)n2C` [Example 32, 5-{[(4-chlorophenyl)carbonyl]amino}-6-ethyl-N-[1-(hydroxyacetyl)piperidin-4-yl]-1-methyl-3-(2,2,2-trifluoroethoxy)-1H-pyrrolo[2,3-b]pyridine-2-carboxamide], for which the inhibition at 1 µM was 98%.

Take `CCOc1c(C(=O)NC2CCN(C(=O)CO)CC2)n(C)c2nc(CC)c(NC(=O)c3ccc(F)cc3)cc12` [Example 39, 3-ethoxy-6-ethyl-5-{[(4-fluorophenyl)carbonyl]amino}-N-[1-(hydroxyacetyl)piperidin-4-yl]-1-methyl-1H-pyrrolo[2,3-b]pyridine-2-carboxamide]: the inhibition at 1 µM came to 96%.

On to `CCc1cc2c(nc1NC(=O)c1ccccc1)c(OCC(F)(F)F)c(C(=O)NC1CCN(C(=O)CO)CC1)n2C` [Example 127, 6-ethyl-N-[1-(hydroxyacetyl)piperidin-4-yl]-1-methyl-5-[(phenylcarbonyl)amino]-3-(2,2,2-trifluoroethoxy)-1H-pyrrolo[3,2-b]pyridine-2-carboxamide], for which the inhibition at 1 µM came to 96%.
